Test [1] concerns the target T1, CDK2/cyclin A2 (Homo sapiens, UniProt P24941).
T1 construct: purchased Carna Biosciences, Inc. QS S Assist CDK2/Cyclin A2_FP Kit
The test is described as follows: Human CDK2/cyclin A2 inhibitory activity (QS S Assist CDK2/Cyclin A2_FP Kit, IMAP fluorescence polarization). The format is biochemical. The method, then:
Human CDK2/Cyclin A^2 Inhibitory Activity
Each compound was analyzed for CDK2/cyclin A2 inhibitory activity with an assay kit (QS S Assist CDK2/Cyclin A2_FP Kit, available from Carna Biosciences, Inc.). This assay kit determines kinase activity on the basis of the IMAP technology by Molecular Devices. Specifically, the kinase activity is determined through quantification of a variation in fluorescent polarization caused by binding of a kinase-phosphorylated fluorescent substance to an IMAP-binding reagent.
An assay buffer was prepared by 10-fold dilution of the 10× assay buffer attached to the kit with distilled water, and each solution was prepared with the assay buffer. The assay buffer contained 20 mM HEPES (pH 7.4), 0.01% Tween 20, and 2 mM dithiothreitol. A test compound solution was prepared by dilution of the test compound with dimethyl sulfoxide (DMSO) to a concentration 100 times higher than the final concentration and then 25-fold dilution with the assay buffer to a concentration four times higher than the final concentration. An ATP/substrate/Metal solution was prepared by five-fold dilution of the 5×ATP/substrate/Metal solution attached to the kit with the assay buffer. An enzyme solution was prepared by dilution of the CDK2/cyclin A2 attached to the kit with the assay buffer to a concentration twice higher than the final concentration (final concentration of CDK2/cyclin A2: 2.5 ng/well). A detection reagent was prepared by five-fold dilution of 5×IMAP-binding buffer A with distilled water and 400-fold dilution of the IMAP-binding reagent with the diluted buffer.
The test compound solution (5 μL/well) and the ATP/substrate/Metal solution (5 μL/well) were added to a 384-well plate, and the enzyme solution or the assay buffer (10 μL/well) was added to the plate (total amount of the reaction mixture: 20 μL/well) for initiation of enzymatic reaction. […] The reaction was performed at room temperature for 60 minutes, and the detection reagent (60 μL/well) was then added to the plate, followed by further reaction for 30 minutes at room temperature under light shielding conditions. Subsequently, fluorescent polarization was determined with a microplate reader at an excitation wavelength of 485 nm and an emission wavelength of 535 nm.
The percent inhibition of enzyme activity was calculated for each test compound (note: enzyme activity=100% in the case of addition of the enzyme solution and addition of DMSO instead of the test compound solution, whereas enzyme activity=0% in the case of addition of the assay buffer instead of the enzyme solution and addition of DMSO instead of the test compound solution). The percent inhibition of enzyme activity was fitted to a dose-response curve, to determine a 50% inhibitory concentration against CDK2/cyclin A2.
In each table, “+++” corresponds to IC50<10 nM, “++” 10 nM≤IC50<100 nM, and “+” 100 nM≤IC50.
In general terms: Fluorescence polarisation rises when a labelled molecule tumbles more slowly, as on binding a larger partner.

The target in test [2] is T2, CDK4/cyclin D3 (Homo sapiens, UniProt P11802).
T2 construct: purchased Carna Biosciences, Inc. QS S Assist CDK4/Cyclin D3_FP Kit
The test is described as follows: Human CDK4/cyclin D3 inhibitory activity (QS S Assist CDK4/Cyclin D3_FP Kit, IMAP fluorescence polarization). The format is biochemical. The method, boiled down: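 IMAP fluorescence polarization kit: CDK4/cyclin D3 at 12.5-25 ng/well with kit ATP/substrate/metal mix in 20 mM HEPES pH 7.4, 0.01% Tween20, 2 mM DTT, 45 min at room temperature. FP read at 485/535 nm after 30 min binding; IC50 from dose-response fit of percent inhibition versus enzyme and no-enzyme controls.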

Where [3] appears, read: 50% inhibitory concentration against CDK2/cyclin A2, given as class symbol.
[4] abbreviates: 50% inhibitory concentration against CDK4/cyclin D3, given as class symbol.
[5] abbreviates: Human CDK2/cyclin A2 inhibitory activity, read-out: CDK2 Activity symbol.
[6] abbreviates: Human CDK4/cyclin D3 inhibitory activity, read-out: CDK4 Activity symbol.

Structures are written as SMILES. Where two headings read alike, the source gives them in different places.

T2 sequence (P11802 whole entry): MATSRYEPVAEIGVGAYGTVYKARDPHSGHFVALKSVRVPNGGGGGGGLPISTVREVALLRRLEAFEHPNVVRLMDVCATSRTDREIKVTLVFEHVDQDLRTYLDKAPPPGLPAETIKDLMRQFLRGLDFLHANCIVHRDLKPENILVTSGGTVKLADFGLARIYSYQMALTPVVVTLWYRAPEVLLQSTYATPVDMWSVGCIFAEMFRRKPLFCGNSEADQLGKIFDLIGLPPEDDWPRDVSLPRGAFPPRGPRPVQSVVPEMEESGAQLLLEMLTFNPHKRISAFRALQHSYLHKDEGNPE
T2 sequence (P30281 whole entry partner): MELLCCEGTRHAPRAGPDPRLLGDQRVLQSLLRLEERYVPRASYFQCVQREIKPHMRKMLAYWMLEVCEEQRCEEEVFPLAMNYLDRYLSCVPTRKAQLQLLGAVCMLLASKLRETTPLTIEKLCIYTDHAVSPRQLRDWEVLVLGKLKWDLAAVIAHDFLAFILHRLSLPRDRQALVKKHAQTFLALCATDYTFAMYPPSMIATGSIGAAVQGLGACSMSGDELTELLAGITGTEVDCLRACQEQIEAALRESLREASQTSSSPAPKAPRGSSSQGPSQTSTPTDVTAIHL

On to `CO[C@H](C)c1cc2cnc(Nc3ccc(CN4CCN(CCO)CC4)cn3)nc2c(NC(C)(C)CO)n1` [Compound 913], for which the IC50 in test [1] (setting [3]) was ≥ 100 nM; in test [2] (setting [4]) it was < 10 nM.
Consider `CC(=O)c1cc2cnc(Nc3ccc(N4CCNCC4)cn3)nc2c(N(C)C(C)C)n1` [Compound 91], for which the IC50 in test [1] (setting [5]) is ≥ 100 nM; in test [2] (setting [6]) it was < 10 nM.
`CCCNc1nc(C2(C)COC2)cc2cnc(Nc3ccc4c(n3)CCNC4)nc12` [Compound 947]: the figures for the IC50 in test [1] (setting [3]) and in test [2] (setting [4]) were ≥ 100 nM and < 10 nM, respectively.
The matching figures for `Cc1nc(Nc2ncc3cc([C@@H](C)O)nc(NC(C)C)c3n2)ccc1N1CCNCC1` [Compound 924]: ≥ 100 nM and < 10 nM.
Consider `CC(O)c1cc2cnc(Nc3ccc(N4CCNCC4)cn3)nc2c(NCc2ccccc2)n1` (stereo not drawn) [Compound 69], for which the values for the IC50 in test [1] (setting [5]) and in test [2] (setting [6]) were ≥ 100 nM and < 10 nM, respectively.
For the molecule `C[C@@H](O)c1cc2cnc(Nc3ccc(OCC4CNC4)cn3)nc2c(N[C@H]2CCCOC2)n1` [Compound 800], the values for the IC50 in test [1] (setting [3]) and in test [2] (setting [4]) were ≥ 100 nM and < 10 nM, respectively.
The matching figures for `C[C@@H](O)c1cc2cnc(Nc3ccc(O[C@H]4CC[C@@H](N(C)C)CC4)cn3)nc2c(N[C@H]2CCCOC2)n1` [Compound 787]: ≥ 100 nM and < 10 nM.
The matching figures for `CNCCOc1ccc(Nc2ncc3c(Cl)c([C@@H](C)O)nc(N[C@@H](C)COC)c3n2)nc1` [Compound 758]: ≥ 100 nM and 10 to 100 nM.
Turning to `COCC(C)(C)Nc1nc(C(C)O)cc2cnc(Nc3ccc(N4CCNCC4)cn3)nc12` (stereo not drawn) [Compound 29], the IC50 in test [1] (setting [5]) is ≥ 100 nM; in test [2] (setting [6]), < 10 nM.
The matching figures for `CC(C)Nc1nc(C(F)F)c(F)c2cnc(Nc3ccc(N4CCNCC4)cn3)nc12` [Compound 55]: 10 to 100 nM and < 10 nM.
On to `CC(C)Nc1nc([C@@H](C)O)cc2cnc(Nc3ccc(-c4cncn4C)cn3)nc12` [Compound 958], for which the IC50 was ≥ 100 nM in test [1] (setting [3]) and < 10 nM in test [2] (setting [4]).
On to `CCNc1nc([C@@H](C)O)cc2cnc(Nc3ccc(CN4CCN(CCO)C[C@@H]4C)cn3)nc12` [Compound 983], for which the figures for the IC50 in test [1] (setting [3]) and in test [2] (setting [4]) were ≥ 100 nM and < 10 nM, respectively.
For `CC(C)Nc1nc([C@@H](C)O)cc2cnc(Nc3ccc(N4CCC(CO)C4)nn3)nc12` (stereo partly drawn) [Compound 663] the same measures were ≥ 100 nM and < 10 nM.
For the molecule `CC(C)Nc1nc([C@@H](C)O)cc2cnc(Nc3ccc(CN4CCN(C[C@@H](C)O)CC4)cn3)nc12` [Compound 675], the IC50 in test [1] (setting [3]) was ≥ 100 nM; in test [2] (setting [4]) it was < 10 nM.
For `CNC(=O)CN1CCN(c2ccc(Nc3ncc4cc([C@@H](C)O)nc(NC(C)C)c4n3)nc2)C(=O)C1` [Compound 961] the same measures were ≥ 100 nM and < 10 nM.
The matching figures for `CC(C)CNc1nc([C@@H](C)O)cc2cnc(Nc3ccc(CN4CCCC(O)C4)cn3)nc12` (stereo partly drawn) [Compound 1085]: ≥ 100 nM and < 10 nM.
Regarding `CO[C@H](C)c1cc2cnc(Nc3ccc(C4CCCNC4)cn3)nc2c(NC(C)C)n1` (stereo partly drawn) [Compound 332], the IC50 is ≥ 100 nM in test [1] (setting [5]) and < 10 nM in test [2] (setting [6]).
For `CC(C)Nc1nc([C@@H](C)O)cc2cnc(Nc3ccc(SCCN(C)C)nn3)nc12` [Compound 614] the same measures were ≥ 100 nM and < 10 nM.
As for `CC(C)Nc1nc([C@@H](C)O)cc2cnc(Nc3ccc(CN4CCN(C(C)CO)CC4)cn3)nc12` (stereo partly drawn) [Compound 644], the IC50 in test [1] (setting [3]) was ≥ 100 nM; in test [2] (setting [4]) it was < 10 nM.
As for `CC(C)Nc1nc(C(F)F)cc2cnc(Nc3ccc(CCO)cn3)nc12` [Compound 134], the results for the IC50 in test [1] (setting [5]) and in test [2] (setting [6]) were 10 to 100 nM and < 10 nM, respectively.
As for `CO[C@H](C)c1cc2cnc(Nc3ccc4c(n3)CCN(C(=O)OCCN(C)C)C4)nc2c(N[C@H]2CCCOC2)n1` [Compound 1135], the IC50 in test [1] (setting [3]) was ≥ 100 nM; in test [2] (setting [4]), < 10 nM.
With `CO[C@H](C)c1cc2cnc(Nc3ccc(N4CCNCC4)nn3)nc2c(N[C@@H]2CCCOC2)n1` [Compound 305], the IC50 in test [1] (setting [5]) is ≥ 100 nM; in test [2] (setting [6]), < 10 nM.
Turning to `CO[C@H](C)c1cc2cnc(Nc3ccc(N4CCNCC4)nn3)nc2c(NCC(C)C)n1` [Compound 862], the IC50 in test [1] (setting [3]) is ≥ 100 nM; in test [2] (setting [4]) it was < 10 nM.
Turning to `CC(C)Nc1nc([C@@H](C)O)c(Cl)c2cnc(Nc3ccc(CN4CCNCC4)cn3)nc12` [Compound 238], the IC50 is ≥ 100 nM in test [1] (setting [5]) and < 10 nM in test [2] (setting [6]).
On to `CCCNc1nc([C@@H](C)O)cc2cnc(Nc3ccc(CN4CCN(C)CC4)cn3)nc12` [Compound 1104], for which the IC50 is ≥ 100 nM in test [1] (setting [3]) and < 10 nM in test [2] (setting [4]).
For `CC(C)Nc1nc([C@@H](C)O)c(Cl)c2cnc(Nc3ccc(N4CCC(OCC(=O)O)CC4)nn3)nc12` [Compound 703] the same measures were ≥ 100 nM and 10 to 100 nM.
In the case of `CCNc1nc([C@@H](C)OC)cc2cnc(Nc3ccc4c(n3)CCN(CCN(C)C)C4)nc12` [Compound 1131], the IC50 was ≥ 100 nM in test [1] (setting [3]) and 10 to 100 nM in test [2] (setting [4]).
For `COC[C@H](C)Nc1nc([C@@H](C)O)cc2cnc(Nc3ccc(N4CCC(O)CC4)nn3)nc12` [Compound 760] the same measures were ≥ 100 nM and 10 to 100 nM.
With `CC(C)Nc1nc(C(C)O)cc2cnc(Nc3ccc(N4CCC(O)CC4)cn3)nc12` (stereo not drawn) [Compound 61], the IC50 in test [1] (setting [5]) was ≥ 100 nM; in test [2] (setting [6]), < 10 nM.
Take `CC(C)Nc1nc(C2(C)COC2)cc2cnc(Nc3ccc(N4CCNCC4)cn3)nc12` [Compound 1006]: the IC50 in test [1] (setting [3]) was ≥ 100 nM; in test [2] (setting [4]), < 10 nM.
For the molecule `CCCCNc1nc(C(C)=O)cc2cnc(Nc3ccc(CN4CCN(CCO)CC4)cn3)nc12` [Compound 975], the IC50 in test [1] (setting [3]) is ≥ 100 nM; in test [2] (setting [4]), 10 to 100 nM.
As for `CC(C)Nc1nc(C(F)F)cc2cnc(Nc3ccc(NC(N)=O)cn3)nc12` [Compound 85], the IC50 in test [1] (setting [5]) and in test [2] (setting [6]) was 10 to 100 nM throughout.
For `CO[C@H](C)c1cc2cnc(Nc3ccc(N4CCN(C(=O)CO)CC4)nn3)nc2c(NC(C)C)n1` [Compound 335], the IC50 in test [1] (setting [5]) is ≥ 100 nM; in test [2] (setting [6]) it was < 10 nM.
The matching figures for `CC(C)Nc1nc(C(C)O)cc2cnc(Nc3ccc(N4CCC(N)C(F)C4)nn3)nc12` (stereo not drawn) [Compound 618]: ≥ 100 nM and < 10 nM.
Turning to `CC(C)Nc1nc([C@@H](C)O)cc2cnc(Nc3ccc(N4CCn5cncc5C4)nn3)nc12` [Compound 964], the IC50 in test [1] (setting [3]) was ≥ 100 nM; in test [2] (setting [4]), < 10 nM.
The matching figures for `CCNc1nc([C@@H](C)O)cc2cnc(Nc3ccc(CN4CCN(CCCO)CC4)cn3)nc12` [Compound 1072]: ≥ 100 nM and < 10 nM.
For `C[C@@H](O)c1nc(N[C@H]2CCCOC2)c2nc(Nc3ccc(OCCN(C)C)cn3)ncc2c1Cl` [Compound 719] the same measures were ≥ 100 nM and < 10 nM.
For `CCCNc1nc([C@@H](C)O)cc2cnc(Nc3ccc(C(=O)N4CCN(C)CC4)cn3)nc12` [Compound 1221] the same measures were ≥ 100 nM and < 10 nM.
`COCC(C)Nc1nc(C(F)F)cc2cnc(Nc3ccc(N4CCNCC4)cn3)nc12` (stereo not drawn) [Compound 30]: the IC50 in test [1] (setting [5]) was 10 to 100 nM; in test [2] (setting [6]), < 10 nM.
The matching figures for `COCC(C)(C)Nc1nc([C@@H](C)O)cc2cnc(Nc3ccc(N4CCOCC4)cn3)nc12` [Compound 204]: ≥ 100 nM and < 10 nM.
As for `CC(C)Nc1nc([C@@H](C)O)cc2cnc(Nc3ccc(CN4CCN(CC(=O)N(C)C)CC4)cn3)nc12` [Compound 1018], the IC50 in test [1] (setting [3]) is ≥ 100 nM; in test [2] (setting [4]) it was < 10 nM.
For the molecule `O=C(O)[C@H]1CC[C@H](Nc2nc(C(F)F)cc3cnc(Nc4ccc(CN5CCNCC5)cn4)nc23)CC1` [Compound 383], the IC50 in test [1] (setting [5]) is ≥ 100 nM; in test [2] (setting [6]), 10 to 100 nM.

These data come from patent US10124004B2, “Pyrido[3,4-d]pyrimidine derivative and pharmaceutically acceptable salt thereof” (Teijin Pharma Limited, priority 2015, dated 2018).
